According to US20240366770A1, “DEGRADATION OF BRUTON'S TYROSINE KINASE (BTK) BY CONJUGATION OF BTK INHIBITORS WITH E3 LIGASE LIGAND AND METHODS OF USE” (BeiGene Switzerland GmbH, priority 2021, published 2024):

How the values were obtained:
BTK = target: T1, BTK (Homo sapiens, UniProt Q06187); assay: BTK degradation in TMD-8 cells (HTRF assay); assay type: cell-based; settings: 6 h treatment, IC50 (DC50) of BTK degradation
T1 construct: High control=Cell group with added DMSO and without compound, indicating microplate readings without BTK degradation; endogenous in cells; host or cells: TMD-8
Method: (§1) TMD-8 cells were treated with compounds diluted in 0.2% DMSO, dilution was done according to the following protocol: (1) making 500× stock solution in DMSO from 1 mM by 6-fold dilution, total 8 doses were included; (2) making 2× solution in cell culture medium by transferring 0.5 μl 500× stock solution into 125 μl medium; (3) adding 15 μl of 2× solution to cells for incubation of 6 h.
After 6 h treatment, 10 μl 4× lysis buffer was added to each well; the plate was sealed and incubated for 30 min at room temperature on a plate shaker; Once the cells was lysed, 16 μL of cell lysate were transferred to a PE 384-well HTRF detection plate; 4 μL of pre-mixed HTRF antibodies were added to each well; the plate was covered with a plate sealer, and then spinned at 1000 rpm for 1 min, then incubated overnight at room temperature; the results were read on BMG PheraStar with HTRF protocol (337 nm-665 nm-620 nm).
The IC50 (DC50) value of a compound can be obtained by fitting the following equation
(§2) wherein, X and Y are known values, and IC50, Hillslope, Top and Bottom are the parameters obtained by fitting with software. Y is the inhibition percentage (calculated from the equation), X is the concentration of the compound; IC50 is the concentration of the compound when the 50% inhibition is reached. The smaller the IC50 value is, the stronger the inhibitory ability of the compound is. Vice versa, the higher the IC50 value is, the weaker the ability the inhibitory ability of the compound is; Hillslope represents the slope of the fitted curve, generally around 1 *; Bottom represents the minimum value of the curve obtained by data fitting, which is generally 0%±20%; Top represents the maximum value of the curve obtained by data fitting, which is generally 100%±20%. The experimental data were fitted by calculating and analyzing with Dotmatics data analysis software.

HEK-293 cells = assay: HEK-293 cytotoxicity detection (CellTiter-Glo); assay type: cell-based; settings: Homo sapiens; HEK-293 cells, 72 h incubation, CellTiter-Glo luminescence, IC50 of cell proliferation inhibition; read-out: HEK293
Method: as §1, with “HEK-293 cells” for “TMD-8 cells”, “from 5” for “from 1”, “by 4-fold” for “by 6-fold”, “0.5 ul” for “0.5 μl”, “adding 50” for “adding 15”, “of 72” for “of 6”
25 μl of the CellTiter-Glo®Reagent [(Promega) -Cat No. G7572] was added to each well in the 96-well plate. The contents were mixed for 2 minutes on an orbital shaker to induce cell lysis. The plate was then allowed to incubate at room temperature for 10 minutes to stabilize luminescent signal. Luminescence was recorded on BMG PheraStar with luminescence protocol.
The IC50 value of a compound can be obtained by fitting the following equation
as §2, with “Wherein,” for “wherein,”

T1 sequence (Q06187 whole entry): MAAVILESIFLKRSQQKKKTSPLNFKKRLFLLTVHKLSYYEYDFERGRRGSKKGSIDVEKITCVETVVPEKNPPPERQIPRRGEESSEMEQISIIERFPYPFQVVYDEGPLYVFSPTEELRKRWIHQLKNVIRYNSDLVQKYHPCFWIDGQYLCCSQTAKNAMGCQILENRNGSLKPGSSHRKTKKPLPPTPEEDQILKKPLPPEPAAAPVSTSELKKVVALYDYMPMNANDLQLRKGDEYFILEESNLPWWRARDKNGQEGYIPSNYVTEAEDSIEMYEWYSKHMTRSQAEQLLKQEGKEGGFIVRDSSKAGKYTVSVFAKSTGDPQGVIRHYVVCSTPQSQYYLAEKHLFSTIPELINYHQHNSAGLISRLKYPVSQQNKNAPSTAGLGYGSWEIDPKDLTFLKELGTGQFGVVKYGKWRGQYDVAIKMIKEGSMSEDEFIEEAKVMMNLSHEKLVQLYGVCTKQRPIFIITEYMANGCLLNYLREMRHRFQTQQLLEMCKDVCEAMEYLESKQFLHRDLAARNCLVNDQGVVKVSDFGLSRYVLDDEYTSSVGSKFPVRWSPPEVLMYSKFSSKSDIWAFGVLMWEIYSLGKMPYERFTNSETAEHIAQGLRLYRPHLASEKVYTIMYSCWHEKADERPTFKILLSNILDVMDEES

| Structure (SMILES) | DC50 (BTK) | IC50 (HEK-293 cells) |
| --- | --- | --- |
| Cc1cc(-c2ncnc3[nH]c4cc([C@H]5CCN(CC6CCN(c7ccc(N8CCC(=O)NC8=O)cc7)CC6)C5)ccc4c23)ccc1[C@@H](C)NC(=O)c1nc(C(C)(C)C)no1 [Example 14, 3-(tert-butyl)-N—((R)-1-(4-(7-((R)-1-((1-(4-(2,4-dioxotetrahydropyrimidin-1(2H)-yl)phenyl)piperidin-4-yl)methyl)pyrrolidin-3-yl)-9H-pyrimido[4,5-b]indol-4-yl)-2-methylphenyl)ethyl)-1,2,4-oxadiazole-5-carboxamide] | 0.495 nM | 3340 nM |
| Cc1cc(-c2ncnc3[nH]c4cc(N5CCN(CCc6ccc(C7CCC(=O)NC7=O)c(C)n6)CC5)ccc4c23)ccc1[C@@H](C)NC(=O)c1nc(C(C)(C)C)no1 (stereo partly drawn) [Example 16, 3-(tert-butyl)-N-((1R)-1-(4-(7-(4-(2-(5-(2,6-dioxopiperidin-3-yl)-6-methylpyridin-2-yl)ethyl)piperazin-1-yl)-9H-pyrimido[4,5-b]indol-4-yl)-2-methylphenyl)ethyl)-1,2,4-oxadiazole-5-carboxamide] | 0.347 nM | > 10000 nM |
| Cc1cc(-c2ncnc3[nH]c4cc(N5CCN(CCc6ccc(N7CCC(=O)NC7=O)c(C)c6)CC5)ccc4c23)ccc1[C@@H](C)NC(=O)c1nc(C(C)(C)C)no1 [Example 17, (R)-3-(tert-butyl)-N-(1-(4-(7-(4-(4-(2,4-dioxotetrahydropyrimidin-1(2H)-yl)-3-methylphenethyl)piperazin-1-yl)-9H-pyrimido[4,5-b]indol-4-yl)-2-methylphenyl)ethyl)-1,2,4-oxadiazole-5-carboxamide] | 0.341 nM | > 10000 nM |
| Cc1cc(-c2ncnc3[nH]c4cc(N5CCN(CCc6ccc(N7CCC(=O)NC7=O)cn6)CC5)ccc4c23)ccc1[C@@H](C)NC(=O)c1nc(C(C)(C)C)no1 [Example 19, (R)-3-(tert-butyl)-N-(1-(4-(7-(4-(2-(5-(2,4-dioxotetrahydropyrimidin-1(2H)-yl)pyridin-2-yl)ethyl)piperazin-1-yl)-9H-pyrimido[4,5-b]indol-4-yl)-2-methylphenyl)ethyl)-1,2,4-oxadiazole-5-carboxamide] | 0.564 nM | 5650 nM |
| Cc1cc(-c2ncnc3[nH]c4cc(N5CCN(CC6CCN(c7ccc(N8CCC(=O)NC8=O)c(C)c7)CC6)CC5)ccc4c23)ccc1[C@@H](C)NC(=O)c1noc(C(C)(C)C)n1 [Example 22, (R)-5-(tert-butyl)-N-(1-(4-(7-(4-((1-(4-(2,4-dioxotetrahydropyrimidin-1(2H)-yl)-3-methylphenyl)piperidin-4-yl)methyl)piperazin-1-yl)-9H-pyrimido[4,5-b]indol-4-yl)-2-methylphenyl)ethyl)-1,2,4-oxadiazole-3-carboxamide] | 0.211 nM | > 10000 nM |
| Cc1cc(-c2ncnc3[nH]c4cc(N5CCN(CC6CCN(c7ccc(N8CCC(=O)NC8=O)cc7)CC6)CC5)ccc4c23)c(F)cc1[C@@H](C)NC(=O)c1nc(C(C)(C)C)no1 [Example 23, (R)-3-(tert-butyl)-N-(1-(4-(7-(4-((1-(4-(2,4-dioxotetrahydropyrimidin-1(2H)-yl)phenyl)piperidin-4-yl)methyl)piperazin-1-yl)-9H-pyrimido[4,5-b]indol-4-yl)-5-fluoro-2-methylphenyl)ethyl)-1,2,4-oxadiazole-5-carboxamide] | 0.608 nM | 2900 nM |
| Cc1cc(-c2ncnc3[nH]c4cc(N5CCN(CC6CCN(c7ccc(N8CCC(=O)NC8=O)c(C)c7)CC6)CC5)ccc4c23)c(F)cc1[C@@H](C)NC(=O)c1noc(C(C)(C)C)n1 [Example 24, (R)-5-(tert-butyl)-N-(1-(4-(7-(4-((1-(4-(2,4-dioxotetrahydropyrimidin-1(2H)-yl)-3-methylphenyl)piperidin-4-yl)methyl)piperazin-1-yl)-9H-pyrimido[4,5-b]indol-4-yl)-5-fluoro-2-methylphenyl)ethyl)-1,2,4-oxadiazole-3-carboxamide] | 0.47 nM | > 10000 nM |
| Cc1c([C@@H](C)NC(=O)c2noc(C(C)(C)C)n2)ccc(-c2ncnc3[nH]c4cc(N5CCN(CC6CCN(c7ccc(N8CCC(=O)NC8=O)cc7)CC6)CC5)ccc4c23)c1F [Example 27, (R)-5-(tert-butyl)-N-(1-(4-(7-(4-((1-(4-(2,4-dioxotetrahydropyrimidin-1(2H)-yl)phenyl)piperidin-4-yl)methyl)piperazin-1-yl)-9H-pyrimido[4,5-b]indol-4-yl)-3-fluoro-2-methylphenyl)ethyl)-1,2,4-oxadiazole-3-carboxamide] | 0.299 nM | > 10000 nM |

Now from value to compound, other results behind:

| DC50 (BTK) | Structure (SMILES) | IC50 (HEK-293 cells) |
| --- | --- | --- |
| 0.616 nM | Cc1cc(-c2ncnc3[nH]c4cc(N5CCN(C6CC(c7ccc(C8CCC(=O)NC8=O)cc7)C6)CC5)ccc4c23)ccc1[C@@H](C)NC(=O)c1nc(C(C)(C)C)no1 (stereo partly drawn) [Example 15, 3-(tert-butyl)-N-((1R)-1-(4-(7-(4-(3-(4-(2,6-dioxopiperidin-3-yl)phenyl)cyclobutyl)piperazin-1-yl)-9H-pyrimido[4,5-b]indol-4-yl)-2-methylphenyl)ethyl)-1,2,4-oxadiazole-5-carboxamide] | > 10000 nM |
| 0.607 nM | Cc1cc(CCN2CCN(c3ccc4c(c3)[nH]c3ncnc(-c5ccc([C@@H](C)NC(=O)c6nc(C(C)(C)C)no6)c(C)c5)c34)CC2)ccc1C1CCC(=O)NC1=O (stereo partly drawn) [Example 18, 3-(tert-butyl)-N-((1R)-1-(4-(7-(4-(4-(2,6-dioxopiperidin-3-yl)-3-methylphenethyl)piperazin-1-yl)-9H-pyrimido[4,5-b]indol-4-yl)-2-methylphenyl)ethyl)-1,2,4-oxadiazole-5-carboxamide] | > 10000 nM |
| 1.3 nM | Cc1cc(-c2ncnc3[nH]c4cc(C5CCN(C6CC(c7ccc([C@H]8CCC(=O)NC8=O)cc7)C6)C5)ccc4c23)ccc1[C@@H](C)NC(=O)c1nc(C(C)(C)C)no1 (stereo partly drawn) [Example 20, 3-(tert-butyl)-N-((1R)-1-(4-(7-(1-(3-(4-((R)-2,6-dioxopiperidin-3-yl)phenyl)cyclobutyl)pyrrolidin-3-yl)-9H-pyrimido[4,5-b]indol-4-yl)-2-methylphenyl)ethyl)-1,2,4-oxadiazole-5-carboxamide] | 3520 nM |
| 0.609 nM | Cc1cc(-c2ncnc3[nH]c4cc(C5CCN(C6CC(c7ccc([C@@H]8CCC(=O)NC8=O)cc7)C6)C5)ccc4c23)ccc1[C@@H](C)NC(=O)c1nc(C(C)(C)C)no1 (stereo partly drawn) [Example 21, 3-(tert-butyl)-N-((1R)-1-(4-(7-(1-(3-(4-((S)-2,6-dioxopiperidin-3-yl)phenyl)cyclobutyl)pyrrolidin-3-yl)-9H-pyrimido[4,5-b]indol-4-yl)-2-methylphenyl)ethyl)-1,2,4-oxadiazole-5-carboxamide] | 3600 nM |
| 0.872 nM | Cc1cc(-c2ncnc3[nH]c4cc(N5CCN(C6CC(c7ccc([C@@H]8CCC(=O)NC8=O)cc7)C6)CC5)ccc4c23)c(F)cc1[C@@H](C)NC(=O)c1nc(C(C)(C)C)no1 (stereo partly drawn) [Example 25, 3-(tert-butyl)-N—((R)-1-(4-(7-(4-(3-(4-((S)-2,6-dioxopiperidin-3-yl)phenyl)cyclobutyl)piperazin-1-yl)-9H-pyrimido[4,5-b]indol-4-yl)-5-fluoro-2-methylphenyl)ethyl)-1,2,4-oxadiazole-5-carboxamide] | > 10000 nM |
| 2.2 nM | Cc1cc(-c2ncnc3[nH]c4cc(N5CCN(C6CC(c7ccc([C@H]8CCC(=O)NC8=O)cc7)C6)CC5)ccc4c23)c(F)cc1[C@@H](C)NC(=O)c1nc(C(C)(C)C)no1 (stereo partly drawn) [Example 26, 3-(tert-butyl)-N—((R)-1-(4-(7-(4-(3-(4-((R)-2,6-dioxopiperidin-3-yl)phenyl)cyclobutyl)piperazin-1-yl)-9H-pyrimido[4,5-b]indol-4-yl)-5-fluoro-2-methylphenyl)ethyl)-1,2,4-oxadiazole-5-carboxamide] | > 10000 nM |
